Key:
[1] = system: P. falciparum gametocytes; test: microsphiltration (spleen-mimetic microfilters) retention / stiffening of mature gametocytes, dose-response; type: cell-based, Plasmodium falciparum; settings: for IC50: Plasmodium falciparum, mature gametocytes, retention in microsphiltration, read-out: stiffening effect IC50; for activity by readout (readout 1 male and female gametocytes staining vs readout 2 specific female gametocytes staining): dose-response curves, data not shown
Excerpt: FIG. 1. Screening progression cascade. ReFrame library (12,805 compounds), Kinase Inhibitors Box (350 compounds) and Pathogen Box (400 compounds) were screened with “microsphiltration” against P. falciparum gametocytes. Hits from primary screening were further selected by dose-response analysis (DRA). Confirmed 82 hits were divided in 7 groups, based on their activity and molecular target (data not shown). Hits repartition is shown in parenthesis, along with the name of one representative hit for each group. A score was assigned to each DRA confirmed hit, based on route of administration, safety in human clinical trials, pharmacokinetic and affordability for developing countries, leading to final selection of 3 hits for further in vitro and in vivo confirmation experiments.
FIG. 2. Representative single 384-wells plate scatterplots of primary screening. Each well of a screening plate is loaded with pre-spotted compounds while two columns are left for controls. They are represented as follows: empty circles for non-selected compounds and black circles for hits (352 wells), black squares for negative control (DMSO 0.05%, 16 wells), black squares for main positive control (NITD609 0.5 μM, 8 wells), light black empty squares for retention positive control (Calyculin A 75 nM, 6 wells), black squares for killing control (Gentian Violet 50 μM, 2 wells). For each well, killing and retention values are calculated and distributed in a “xy” graph. Two graphs are made for each plate: one using male and female gametocytes imaging (“readout 1”, left panel) and one using specific female gametocytes imaging (“readout 2”, right panel). For each graph, a linear regression (solid line) is tracked with 95% confidence interval (dashed lines). The compounds beyond the upper confidence interval in both readouts are identified as hits. A) Plate number 15 of ReFRAME library: 8 hits with readout 1, 11 hits with readout 2, 4 hits (shared between the two readouts) finally identified. B) Plate number 9 of ReFRAME library: 7 hits with readout 1, 11 hits with readout 2, 5 hits finally individuated, including NITD609 (highlighted with an arrow). In few cases, compounds with only killing effect were added to hitlist.
FIG. 4. Examples of dose-response curves (DRCs) of confirmed hits. Every hit from primary screening has been re-tested in duplicate (ReFrame library) and in triplicate (Kinase Inhibitors and Pathogen Box libraries) for dose-response, starting from 5 (10 μM for ReFrame hits) to 5 nM. For each of them, a DRC for killing and retention was tracked and IC50 was calculated (one for readout 1, male and female gametocytes staining, one for readout 2, specific female gametocytes staining). Error bars denote the standard deviation. The first curve is referred to killing effect and the second curve to retention effect normalized on DMSO negative control. Chemical structure of the compound is represented for each DRC. Hits and readouts have been selected among the ones with lowest variability, with the addition of TD-6450 and L-THP due to their high priority. […] Readout 2 has been selected for all of them except APPCL. […] Readout 2 used for all of them. […] Readout 2 used for all of them except TD-6450.

[2] = system: P. falciparum gametocytes; test: killing of mature gametocytes in the microsphiltration screen, dose-response; type: cell-based; settings: Plasmodium falciparum, read-out: killing effect IC50
Excerpt: FIG. 1. Screening progression cascade. ReFrame library (12,805 compounds), Kinase Inhibitors Box (350 compounds) and Pathogen Box (400 compounds) were screened with “microsphiltration” against P. falciparum gametocytes. Hits from primary screening were further selected by dose-response analysis (DRA). Confirmed 82 hits were divided in 7 groups, based on their activity and molecular target (data not shown). Hits repartition is shown in parenthesis, along with the name of one representative hit for each group. […]
FIG. 2. […] For each well, killing and retention values are calculated and distributed in a “xy” graph. Two graphs are made for each plate: one using male and female gametocytes imaging (“readout 1”, left panel) and one using specific female gametocytes imaging (“readout 2”, right panel). […] The compounds beyond the upper confidence interval in both readouts are identified as hits. A) Plate number 15 of ReFRAME library: 8 hits with readout 1, 11 hits with readout 2, 4 hits (shared between the two readouts) finally identified. B) Plate number 9 of ReFRAME library: 7 hits with readout 1, 11 hits with readout 2, 5 hits finally individuated, including NITD609 (highlighted with an arrow). […]
FIG. 4. […] For each of them, a DRC for killing and retention was tracked and IC50 was calculated (one for readout 1, male and female gametocytes staining, one for readout 2, specific female gametocytes staining). […]

Compound | IC50 [1] | activity by readout (readout 1 male and female gametocytes staining vs readout 2 specific female gametocytes staining) [1] | IC50 [2]
COc1cc2c(cc1OC)[C@@H]1Cc3ccc(OC)c(OC)c3CN1CC2 [L-THP, (13aS)-2,3,9,10-tetramethoxy-6,8,13,13a-tetrahydro-5H-isoquinolino[2,1-b]isoquinoline] | 5 nM | – | –
O=C(NCCN1CCCC1)c1cc(NCCCCN2CCC(F)(F)CC2)nc2ccc(Cl)cc12 [MMV667494] | – | specifically actives on readout 2 | –
CNC(=O)N1C[C@@H](C)N(c2ccc(C(=O)Nc3ccc(-c4ccc(-c5c[nH]c([C@@H]6CCCN6C(=O)[C@@H](NC(=O)OC)C(C)C)n5)cc4)c(OC(F)(F)F)c3)cn2)C[C@@H]1C [TD-6450, carbamic acid, N-[(1S)-1-[[(2S)-2-[5-[4′-[[[6-[(2R,5S)-2,5-dimethyl-4-[(methylamino)carbonyl]-1-piperazinyl]-3-pyridinyl]carbonyl]amino]-2′-(trifluoromethoxy) [1,1′-biphenyl]-4-yl]-1H-imidazol-2-yl]-1-pyrrolidinyl]carbonyl]-2-methylpropyl]-, methyl ester] | 600 nM | – | –
CC(C)(CN)c1nc(-c2ccc(Cl)c(O)c2)c(-c2ccnc(N)n2)[nH]1 [MMV030734] | – | specifically actives on readout 2 | –
C[C@H]1Cc2c([nH]c3cc(Cl)c(F)cc23)[C@@]2(N1)C(=O)Nc1ccc(Cl)cc12 [NITD609, (1R,3S)-5′,7-Dichloro-6-fluoro-3-methyl-spiro[2,3,4,9-tetrahydropyrido[3,4-b]indole-1,3′-indoline]-2′-one] | 50 nM | – | 100 nM

Reference: patent US20240024299A1, “USE OF DRUGS THAT STIFFEN MATURE GAMETOCYTES FOR BLOCKING TRANSMISSION OF PLASMODIUM PARASITES” (INSERM (INSTITUT NATIONAL DE LA SANTÉ ET DE LA RECHERCHE …, priority 2020, published 2024)
